Where two headings read alike, the source gives them in different places.
Experiments:
[1] = Drug concentrations in plasma of guinea-pigs; assay type: in vivo; conditions: anaesthetized guinea-pig
[2] = molecular target: T1, hERG potassium channels stably expressed in CHO-K1 cells (Homo sapiens, UniProt Q12809); conditions: for hERG inhibition (in words): group C drugs: at the highest concentration permitted by solubility
[3] = molecular target: T1, hERG potassium channels stably expressed in CHO-K1 cells; assay: cell-based; conditions: 25 °C, 400-ms pulse protocol
[4] = tested on: anaesthetized guinea-pigs (QTc interval of the ECG); assay: Anaesthetized guinea-pig QT; assay type: in vivo; conditions: for QTc increase of 5% over vehicle (risk signal): low, medium and high doses; for increase (change) of baseline-corrected QTc over vehicle / mean baseline-corrected QTc: highest dose level; for increase (change) of baseline-corrected QTc over vehicle / mean baseline-corrected QTc / effect on QT/QTc interval in the guinea-pig model (in words): i.v. infusion over 10 min
[5] = tested on: plasma proteins; conditions: human; cited from earlier work
[6] = read-out: Human plasma Cmax; single 400 mg dose in humans; cited from earlier work
[7] = tested on: anaesthetized guinea-pigs; assay: Heart rate and mean blood pressure recordings in anaesthetized guinea-pigs; assay type: in vivo, guinea-pig; conditions: limited the maximum dose to 3 mg kg^−1

T1 sequence (Q12809 whole entry): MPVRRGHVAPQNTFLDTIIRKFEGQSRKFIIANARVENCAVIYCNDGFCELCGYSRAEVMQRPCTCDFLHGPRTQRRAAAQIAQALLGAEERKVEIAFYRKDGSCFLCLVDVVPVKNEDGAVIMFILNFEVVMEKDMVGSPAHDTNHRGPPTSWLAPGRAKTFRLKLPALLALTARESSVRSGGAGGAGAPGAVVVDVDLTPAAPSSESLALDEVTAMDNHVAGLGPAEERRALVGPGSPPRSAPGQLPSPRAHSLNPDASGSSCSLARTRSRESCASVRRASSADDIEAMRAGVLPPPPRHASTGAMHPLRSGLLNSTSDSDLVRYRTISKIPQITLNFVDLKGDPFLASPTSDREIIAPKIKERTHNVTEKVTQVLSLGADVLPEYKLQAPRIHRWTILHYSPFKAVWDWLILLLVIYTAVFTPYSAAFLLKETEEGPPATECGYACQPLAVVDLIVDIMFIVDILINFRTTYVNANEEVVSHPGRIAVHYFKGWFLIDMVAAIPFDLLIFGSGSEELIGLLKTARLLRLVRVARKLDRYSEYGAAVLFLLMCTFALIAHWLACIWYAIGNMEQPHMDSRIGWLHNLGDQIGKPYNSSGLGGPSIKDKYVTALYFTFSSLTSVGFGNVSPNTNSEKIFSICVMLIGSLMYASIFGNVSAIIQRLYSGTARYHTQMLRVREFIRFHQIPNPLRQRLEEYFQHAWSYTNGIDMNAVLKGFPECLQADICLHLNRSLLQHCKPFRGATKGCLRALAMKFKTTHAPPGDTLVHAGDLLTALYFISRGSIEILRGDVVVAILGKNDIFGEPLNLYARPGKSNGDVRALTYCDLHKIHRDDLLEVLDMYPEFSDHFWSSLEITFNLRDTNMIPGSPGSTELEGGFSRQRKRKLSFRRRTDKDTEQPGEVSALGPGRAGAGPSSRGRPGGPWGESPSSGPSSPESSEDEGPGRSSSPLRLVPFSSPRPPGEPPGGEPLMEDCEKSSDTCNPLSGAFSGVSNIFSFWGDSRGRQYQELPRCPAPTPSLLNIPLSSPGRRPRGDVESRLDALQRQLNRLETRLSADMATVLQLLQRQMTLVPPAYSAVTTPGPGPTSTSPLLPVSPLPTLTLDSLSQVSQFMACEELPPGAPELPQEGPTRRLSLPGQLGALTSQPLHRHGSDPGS

In the case of CC(C)NCC(O)c1ccc(NS(C)(=O)=O)cc1 (racemic) [D,L-Sotalol], the Peak plasma level ([1]; 1 mg kg^−1 i.v. over 10 min) is reported as 18.2±1.5 (5) μm, the Peak plasma level ([1]; 3 mg kg^−1 i.v. over 10 min) is reported as 41.3±4.8 (4) μm and the Peak plasma level ([1]; 10 mg kg^−1 i.v. over 10 min) is reported as 145.9±16.6 (5) μm.

For CC1(C)S[C@@H]2[C@H](NC(=O)[C@H](N)c3ccc(O)cc3)C(=O)N2[C@H]1C(=O)O [Amoxicillin], the Peak plasma level ([1]; 3 mg kg^−1 i.v. over 10 min) was 4.8±0.5 (5) μm, the Peak plasma level ([1]; 10 mg kg^−1 i.v. over 10 min) was 14.6±1.4 (4) μm and the Peak plasma level ([1]; 20 mg kg^−1 i.v. over 10 min) was 30.3±2.5 (5) μm.

In the case of CC(=O)Oc1ccccc1C(=O)O [Aspirin], the Peak plasma level ([1]; 1 mg kg^−1 i.v. over 10 min) is reported as 31.1±2.3 (5) μm, the Peak plasma level ([1]; 3 mg kg^−1 i.v. over 10 min) is reported as 74.6±2.1 (5) μm and the Peak plasma level ([1]; 10 mg kg^−1 i.v. over 10 min) is reported as 468±78 (4) μm. For the same molecule, the “hERG inhibition (in words)” value [2] was “no hERG inhibition was observed”, the “Free safety margin (hERG IC50/ free Cmax)” value (“Free safety margin” for short) ([2]; hERG IC50 divided by human free plasma Cmax) was over 4512 and the “Free safety margin” value ([2]; hERG IC50 divided by human free plasma Cmax, listed as aspirin) was “above 300”. The IC50 [3] was over 100000 µM and the “QTc increase of 5% over vehicle (risk signal)” value (“QTc increase of 5% over vehicle” for short) [4] was “did not reach the 5% increase of QTc”.

In the case of C[C@H](CS)C(=O)N1CCC[C@H]1C(=O)O [Captopril], the Peak plasma level ([1]; 3 mg kg^−1 i.v. over 10 min) is reported as 57.8±1.6 (2) μm, the Peak plasma level ([1]; 10 mg kg^−1 i.v. over 10 min) is reported as 142±15 (2) μm and the Peak plasma level ([1]; 30 mg kg^−1 i.v. over 10 min) is reported as 313±112 (2) μm. The “hERG inhibition (in words)” value [2] was “no hERG inhibition was observed”, the “increase (change) of baseline-corrected QTc over vehicle” value (“increase (change)” for short) [4] was −7.3% and the “mean baseline-corrected QTc” value [4] was −6.0%. For the same molecule, the “effect on QT/QTc interval in the guinea-pig model (in words)” value [4] was “QTc actually dropped below vehicle” and the “QTc increase of 5% over vehicle” value [4] was “did not reach the 5% increase of QTc”.

For COc1cc(N)c(Cl)cc1C(=O)NC1CCN(CCCOc2ccc(F)cc2)CC1OC (stereo not shown) [Cisapride], the Peak plasma level ([1]; 0.1 mg kg^−1 i.v. over 10 min) was 0.037±0.023 (4) μm, the Peak plasma level ([1]; 0.3 mg kg^−1 i.v. over 10 min) was 0.129±0.032 (4) μm and the Peak plasma level ([1]; 1 mg kg^−1 i.v. over 10 min) was 0.496±0.085 (5) μm.

For O=C(CCCN1CC=C(n2c(=O)[nH]c3ccccc32)CC1)c1ccc(F)cc1 [Droperidol], the Peak plasma level ([1]; 0.03 mg kg^−1 i.v. over 10 min) was 0.55±0.07 (3) μm, the Peak plasma level ([1]; 0.1 mg kg^−1 i.v. over 10 min) was 0.62±0.05 (5) μm and the Peak plasma level ([1]; 0.3 mg kg^−1 i.v. over 10 min) was 1.21±0.34 (5) μm.

In the case of O=C(CCCN1CCC(O)(c2ccc(Cl)cc2)CC1)c1ccc(F)cc1 [Haloperidol], the “Free safety margin” value ([2]; human, pH 7.4) is listed as 1.4, the “Total safety margin (hERG IC50/ total Cmax)” value (“Total safety margin” below) ([2]; human, pH 7.4) is listed as 0.1 and the Protein binding [5] is listed as 90%.

In the case of COc1c(N2C[C@@H]3CCCN[C@@H]3C2)c(F)cc2c(=O)c(C(=O)O)cn(C3CC3)c12 [Moxifloxacin], the Peak plasma level ([1]; 1 mg kg^−1 i.v. over 10 min) is reported as 2.08±0.28 (4) μm, the Peak plasma level ([1]; 5 mg kg^−1 i.v. over 10 min) is reported as 30.6±7.2 (4) μm and the Peak plasma level ([1]; 10 mg kg^−1 i.v. over 10 min) is reported as 80.5±4.0 (5) μm. For the same molecule, the “increase (change)” value [4] was 16.8%, the “mean baseline-corrected QTc” value [4] was 18.3% and the “effect on QT/QTc interval in the guinea-pig model (in words)” value [4] was “dose-dependent QTc prolongation”. For the same molecule, the Cmax [6] was about 7 µM.

For CC(C)NCC(O)COc1cccc2ccccc12 (stereo not shown) [Propranolol], the Peak plasma level ([1]; 0.3 mg kg^−1 i.v. over 10 min) was 0.50±0.03 (3) μm, the Peak plasma level ([1]; 1 mg kg^−1 i.v. over 10 min) was 1.84±0.41 (3) μm and the Peak plasma level ([1]; 3 mg kg^−1 i.v. over 10 min) was 4.65±0.40 (5) μm. For the same molecule, the “QTc increase of 5% over vehicle” value [4] was “did not reach the 5% increase of QTc” and the Protein binding [5] was 85%.

For C=C[C@H]1C[N@@]2CC[C@H]1C[C@@H]2[C@@H](O)c1ccnc2ccc(OC)cc12 [Quinidine], the Peak plasma level ([1]; 3 mg kg^−1 i.v. over 10 min) was 6.2±0.08 (3) μm and the Peak plasma level ([1]; 10 mg kg^−1 i.v. over 10 min) was 27.8±8.0 (5) μm.

In the case of C[C@@H]1CN(c2c(F)c(N)c3c(=O)c(C(=O)O)cn(C4CC4)c3c2F)C[C@H](C)N1 [Sparfloxacin], the Peak plasma level ([1]; 3 mg kg^−1 i.v. over 10 min) is reported as 23.5±4.2 (3) μm, the Peak plasma level ([1]; 10 mg kg^−1 i.v. over 10 min) is reported as 80.4±9.1 (5) μm and the Peak plasma level ([1]; 30 mg kg^−1 i.v. over 10 min) is reported as 159.4±22.4 (4) μm. The “Free safety margin” value ([2]; human, pH 7.4) was 3.757, the “Total safety margin” value ([2]; human, pH 7.4) was 2.477 and the IC50 [3] was 24 µM. For the same molecule, the “increase (change)” value [4] was 19.6% and the “mean baseline-corrected QTc” value [4] was 20.0%.

In the case of CC/C(=C(\c1ccccc1)c1ccc(OCCN(C)C)cc1)c1ccccc1 [Tamoxifen], the Peak plasma level ([1]; 3 mg kg^−1 i.v. over 10 min) is reported as 3.8±0.8 (4) μm, the Peak plasma level ([1]; 10 mg kg^−1 i.v. over 10 min) is reported as 10.5±2.1 (5) μm and the Peak plasma level ([1]; 30 mg kg^−1 i.v. over 10 min) is reported as 60.0±20.0 (5) μm. The “mean baseline-corrected QTc” value [4] was 8.4%.

In the case of CC(C)(C)c1ccc(C(O)CCCN2CCC(C(O)(c3ccccc3)c3ccccc3)CC2)cc1 (stereo not shown) [Terfenadine], the “haemodynamic effects (in words)” value [7] is reported as “marked bradycardia and resultant hypotension”.

In the case of COc1ccc(CCN(C)CCCC(C#N)(c2ccc(OC)c(OC)c2)C(C)C)cc1OC (stereo not shown) [Verapamil], the “QTc increase of 5% over vehicle” value [4] is reported as “did not reach the 5% increase of QTc”.

With O=C1Cc2cc(CCN3CCN(c4nsc5ccccc45)CC3)c(Cl)cc2N1 [Ziprasidone] the Peak plasma level ([1]; 0.1 mg kg^−1 i.v. over 10 min) was 1.1±0.2 (4) μm, the Peak plasma level ([1]; 0.3 mg kg^−1 i.v. over 10 min) was 1.2±0.1 (2) μm and the Peak plasma level ([1]; 1 mg kg^−1 i.v. over 10 min) was 4.0±2.2 (2) μm. The “Free safety margin” value ([2]; human, pH 7.4) was 286.45 and the “Total safety margin” value ([2]; human, pH 7.4) was 0.573.
